Test results published in patent publication US5457108A, “5-oxo-dibenzo[a,d]cyclohepta-1,4-dienes” (Bayer Aktiengesellschaft, priority 1992, dated 1995).
pIC50: −log10 of the molar value.

Tests used:
HIV protease = target: T1, HIV protease (Human immunodeficiency virus type 1 group M subtype B, UniProt P04585); experiment: HIV protease enzyme test (cleavage of synthetic Gag peptide, RP-HPLC); format: biochemical; details: purified HIV protease, synthetic peptide substrate, read-out: IC50 (50% inhibition of the protease activity)
T1 construct: purified HIV protease was incubated with synthetic peptide
Protocol: This is verified by means of an HIV-specific protease enzyme test.
The results of the examples listed below were determined according to the HIV test system described in the following references [cf. Hansen, J., Billich, S., Schulze, T., Sukrow, S. and Molling, K (1988), EMBO Journal, Vol. 7, No. 6, pp. 1785-1791]: purified HIV protease was incubated with synthetic peptide which imitates a cleavage site in the Gag precursor protein and represents an in-vivo cleavage site for the HIV protease. The cleavage products of the synthetic peptide which resulted were analysed by means of reverse phase high performance liquid chromatography (RP-HPLC). The IC50 values which are given refer to the substance concentrations which, under the test conditions set out above, effect a 50% inhibition of the protease activity.

HIV = HIV infection in cell culture (syncytium formation in HIV-infected human PBLs); format: cell-based; details: Human immunodeficiency virus 1, Lymphocyte, 72 h; HIV-infected normal human blood lymphocytes (PBLs), 37° C., evaluated day 3 to 6 after infection; read-out: IC50 (50% of the virus-induced syncytia suppressed)
Protocol: HIV infection in cell culture
The HIV test was carried out, with minor modifications, according to the method of Pauwels et al. [cf. Journal of Virological Methods 20, (1988), 309-321].
Normal human blood lymphocytes (PBLs) were enriched through Ficoll-Hypaque and stimulated in RPMI 1640, 20% fetal calf serum containing phytohaemagglutinin (90 μg/ml) and interleukin-2 (40 U/ml). For infection with the infectious HIV, the PBLs were pelleted and the cell pellet was subsequently suspended in 1 ml of HIV virus adsorption solution and incubated at 37° C. for 1 hour.
The virus adsorption solution was centrifuged and the infected cell pellet was taken up in growth medium in such a way that the suspension was adjusted to 1×10^5 cells per ml. The cells infected in this manner were pipetted, at 1×10^4 cells/well, into the wells of 96-well microtitre plates.
The first vertical row of the microtitre plate contained only growth medium and cells which were not infected but which otherwise had been treated exactly as described above (cell control). The second vertical row of the microtitre plate contained only HIV-infected cells (virus control) in growth medium. […]
The test mixtures were incubated at 37° C. until the syncytium formation which is typical for HIV appeared in the untreated virus control (between day 3 and 6 after infection) and it was then evaluated microscopically. […]

SMILES	pIC50 (HIV protease)	pIC50 (HIV)
O=C(NCc1ccc2c(c1)[C@@H](O)[C@H](O)c1cc(CNC(=O)OCc3ccccc3)ccc1C2=O)OCc1ccccc1 (relative stereo) [Example 4, (trans)-2,8-Bis-phenylmethoxycarbonylaminomethyl-10,11-dihydroxy-5-oxo-dibenzo[a,d]cyclohepta-1,4-diene]	8.30	5.00
CC(C)(C)S(=O)(=O)CC(Cc1cccc2ccccc12)C(=O)NCc1ccc2c(c1)C(O)C(O)c1cc(CNC(=O)C(Cc3cccc4ccccc34)CS(=O)(=O)C(C)(C)C)ccc1C2=O (stereo not drawn) [Example 6, (trans)-10,11-Dihydroxy-2,8-bis-[5,5-dimethyl-4,4-dioxo-2-(1-naphthylmethyl)-4-thiahexanoylaminomethyl-5-oxodibenzo[a,d]cyclohepta-1,4-diene]	5.70	
O=C(NCc1ccc2c(c1)[C@@H](O)[C@@H](O)c1cc(CNC(=O)OCc3ccccc3)ccc1C2=O)OCc1ccccc1 [Example 5, (cis)-2,8-Bis-phenylmethoxycarbonylaminomethyl-10,11-dihydroxy-5-oxo-dibenzo[a,d]cyclohepta-1,4-diene]		5.00
